Measurements taken from patent publication US10167256B2, “Psychotrophic agents and uses thereof” (LB PHARMACEUTICALS INC., priority 2016, dated 2019).
pIC50, pKi: −log10 of the molar value.

Assays:
[1] = PAMPA
[2] = biological target: D1 receptor (Homo sapiens (Human), UniProt P21728); conditions: cited from earlier work
[3] = biological target: D4 receptor (Homo sapiens (Human), UniProt P21917); conditions: cited from earlier work
[4] = biological target: D5 receptor (Homo sapiens (Human), UniProt P21918); conditions: cited from earlier work
[5] = biological target: 5-HT2a receptor (Homo sapiens (Human), UniProt P28223); conditions: cited from earlier work
[6] = test system: serotonin receptor subtypes; conditions: cited from earlier work
[7] = test system: alpha-adrenergic receptor subtypes; conditions: cited from earlier work
[8] = test system: histamine receptor subtypes; conditions: cited from earlier work
[9] = test system: muscarinic receptors; conditions: cited from earlier work
[10] = test system: sigma sites; conditions: cited from earlier work
[11] = 2014 study, 30 psychiatric drugs; cited from earlier work
[12] = in vitro; conditions: PAMPA
[13] = biological target: T1, dopamine D2 receptors (Homo sapiens (Human), UniProt P14416); experiment: Dopamine D2 receptor cell-based assay (calcium fluorescence, dopamine at EC80)
Procedure: Dopamine D2 receptor cells were seeded in a half a black, clear-bottomed 96 well plate. At a density of 15,000 cells/well to a volume of 25 μL and were left to incubate overnight. Calcium 5 dye in HEPES buffered HBSS (Hanks' balanced salt solution) was prepared and 10 μL was added to each well and the mixture was left to sit at 37° C. for 1 hour. After equilibration, 5 μL of the test compound and controls were added to the wells and incubated at room temperature for 10 minutes.

[14] = biological target: T1, dopamine D2 receptors; experiment: Dopamine D2 receptor membrane preparation, 3H spiperone binding; conditions: membrane based assay, 0.1 nM 3H spiperone
Procedure: Radioactivity was measured using a Packard Topcount.

[15] = biological target: α2 (non-selective); experiment: Reference ligand displacement, α2 (non-selective); assay type: binding; conditions: α-2A (non-selective); reference ligand prazosin
Procedure: (§1) The ability of Compound 102 and 103 to bind α2 (non-selective), α2A, α2B, α2C, 5-HT2A (agonist), 5-HT2A (antagonist), D2L, D2S, and D3 was measured at concentrations ranging from 10×10^−5 to 10×10^−9 M and measuring displacement of reference ligands (prazosin for α2 (non-selective), yohimbine for α2A, α2B and α2C, DOI ([2,5-dimethoxy-4-iodophenyl]-2-aminopropane) for 5-HT2A (agonist), ketanserine for 5-HT2A (antagonist), butaclamol for D2L, 7-OH-DPAT for D2S, and (+) blutaclamol for D3). bound to the respective isolated receptor.

[16] = biological target: α-2A(h) (Homo sapiens (Human), UniProt P08913); experiment: Reference ligand displacement, α2A; assay type: binding; conditions: yohimbine
Procedure: as §1

[17] = biological target: α-2B(h) (Homo sapiens (Human), UniProt P18089); experiment: Reference ligand displacement, α2B; assay type: binding; conditions: yohimbine
Procedure: as §1

[18] = biological target: α-2C(h) (Homo sapiens (Human), UniProt P18825); experiment: Reference ligand displacement, α2C; assay type: binding; conditions: yohimbine
Procedure: as §1

[19] = biological target: 5-HT2a (agonist) (Homo sapiens (Human), UniProt P28223); experiment: Reference ligand displacement, 5-HT2A (agonist); assay type: binding; conditions: DOI
Procedure: as §1

[20] = biological target: 5-HT2a (antagonist) (Homo sapiens (Human), UniProt P28223); experiment: Reference ligand displacement, 5-HT2A (antagonist); assay type: binding; conditions: ketanserine
Procedure: as §1

[21] = biological target: 5-HT7 (Homo sapiens (Human), UniProt P34969); experiment: Reference ligand displacement, 5-HT7; assay type: binding
[22] = biological target: D2L (Homo sapiens (Human), UniProt P14416); experiment: Reference ligand displacement, D2L; assay type: binding; conditions: butaclamol
Procedure: as §1

[23] = biological target: D2S (Homo sapiens (Human), UniProt P14416); experiment: Reference ligand displacement, D2S; assay type: binding; conditions: 7-OH-DPAT
Procedure: as §1

[24] = biological target: D3 (Homo sapiens (Human), UniProt P35462); experiment: Reference ligand displacement, D3; assay type: binding; conditions: (+) butaclamol
Procedure: as §1

[25] = test system: PCP-treated rats; experiment: Novel Object Recognition (NOR) assay, sub-chronic PCP; assay type: in vivo; conditions: PO; for difference between novel and familiar object exploration time: 3 hours post-dose, all doses save one; for known object exploration behavior in rats treated with PCP: compared with untreated rats, amisulpride and risperidone
Procedure: Efficacy of Compounds 102 and 103 was evaluated in rats in a Novel Object Recognition (NOR) assay, a well-established model recapitulating cognitive and negative aspects of the PANSS scale of schizophrenia. In this assay, animals were treated for several weeks with a low dose of phencyclidine (PCP) to impair the ability of the rat to discern between novel and familiar objects. Typically rats, like humans, would spend more time exploring a novel object than a familiar one.
Rats (n=10/group) were dosed with 2 mg/kg intraperitoneal twice a day (i.p., b.i.d.) for seven days followed by 7 days drug free. […] Novel object exploration time was measured for the test subjects from a sub-chronic PCP NOR study in rats (n=10/group). The differences in exploration time between novel (Tnovel¬) and familiar (Tfamliar) objects are depicted in FIG. 1A (*: p<0.05; and *: p<0.01).

[26] = test system: rats dosed with amphetamine; experiment: Amphetamine-induced Locomotor Activity (LMA) assay; assay type: in vivo; conditions: 30 mg/kg orally, 6 hours post dosing, total ambulatory distance over 1 hour
Procedure: Efficacy of Compounds 102 and 103 was studied in rats in an amphetamine-induced Locomotor Activity (LMA) assay, a measure of positive aspects of the PANSS scale. In the LMA assay rats were dosed with amphetamine (Amp, 1 mg/kg, s.c.), causing excessive movement, in a cage with sensors that monitored how far each rat moved.
Distance moved, over the course of an hour, was measured 6 hours post dosing for Compounds 102 and 103 and amisulpride-risperidone was dosed 1 hour prior to measurement. The endpoint of this study was total ambulatory distance (the distance traveled by each animal in the cage). Total ambulatory distance data from this amphetamine induced LMA study are summarized in FIG. 2 (*: p<0.01; *: p<0.05).

D2S, sequence (P14416 other isoform, or with tags, fused parts or gaps): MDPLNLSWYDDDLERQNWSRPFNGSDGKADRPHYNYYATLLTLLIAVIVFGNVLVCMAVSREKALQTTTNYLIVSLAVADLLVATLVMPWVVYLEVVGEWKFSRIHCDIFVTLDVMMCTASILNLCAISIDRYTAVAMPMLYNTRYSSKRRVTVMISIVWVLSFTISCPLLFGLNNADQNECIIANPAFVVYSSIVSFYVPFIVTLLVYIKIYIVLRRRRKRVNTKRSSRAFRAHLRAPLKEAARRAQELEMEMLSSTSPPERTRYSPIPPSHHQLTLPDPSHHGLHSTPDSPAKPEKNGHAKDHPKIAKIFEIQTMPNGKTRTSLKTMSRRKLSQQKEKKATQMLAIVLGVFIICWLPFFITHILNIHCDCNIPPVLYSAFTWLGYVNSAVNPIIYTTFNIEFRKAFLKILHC
D3, sequence (P35462 whole entry): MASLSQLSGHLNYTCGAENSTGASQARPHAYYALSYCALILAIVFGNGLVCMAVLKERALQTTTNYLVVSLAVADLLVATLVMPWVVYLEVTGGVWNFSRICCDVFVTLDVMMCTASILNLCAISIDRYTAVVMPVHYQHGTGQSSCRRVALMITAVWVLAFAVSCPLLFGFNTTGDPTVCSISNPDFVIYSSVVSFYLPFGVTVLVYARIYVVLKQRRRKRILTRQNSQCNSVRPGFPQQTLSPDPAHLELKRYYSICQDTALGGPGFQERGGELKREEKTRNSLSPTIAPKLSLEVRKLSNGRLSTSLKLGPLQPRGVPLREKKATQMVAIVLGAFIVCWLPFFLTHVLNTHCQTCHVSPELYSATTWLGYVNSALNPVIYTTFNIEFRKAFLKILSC
5-HT2a (agonist), sequence (P28223 whole entry, species assumed): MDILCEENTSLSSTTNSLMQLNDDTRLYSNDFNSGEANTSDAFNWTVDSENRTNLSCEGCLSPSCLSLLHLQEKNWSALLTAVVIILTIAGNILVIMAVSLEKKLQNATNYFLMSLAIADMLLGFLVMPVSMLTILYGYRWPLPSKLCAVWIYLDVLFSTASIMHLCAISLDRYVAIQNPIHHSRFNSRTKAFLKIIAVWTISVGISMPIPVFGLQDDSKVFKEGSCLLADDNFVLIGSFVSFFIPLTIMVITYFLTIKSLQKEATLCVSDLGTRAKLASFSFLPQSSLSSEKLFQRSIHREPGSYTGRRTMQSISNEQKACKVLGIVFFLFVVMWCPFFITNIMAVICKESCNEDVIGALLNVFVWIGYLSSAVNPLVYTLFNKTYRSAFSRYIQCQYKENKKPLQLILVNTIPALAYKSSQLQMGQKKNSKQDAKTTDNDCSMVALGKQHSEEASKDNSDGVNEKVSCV
5-HT2a (antagonist), sequence (P28223 whole entry, species assumed): as above
D2L, sequence (P14416 whole entry): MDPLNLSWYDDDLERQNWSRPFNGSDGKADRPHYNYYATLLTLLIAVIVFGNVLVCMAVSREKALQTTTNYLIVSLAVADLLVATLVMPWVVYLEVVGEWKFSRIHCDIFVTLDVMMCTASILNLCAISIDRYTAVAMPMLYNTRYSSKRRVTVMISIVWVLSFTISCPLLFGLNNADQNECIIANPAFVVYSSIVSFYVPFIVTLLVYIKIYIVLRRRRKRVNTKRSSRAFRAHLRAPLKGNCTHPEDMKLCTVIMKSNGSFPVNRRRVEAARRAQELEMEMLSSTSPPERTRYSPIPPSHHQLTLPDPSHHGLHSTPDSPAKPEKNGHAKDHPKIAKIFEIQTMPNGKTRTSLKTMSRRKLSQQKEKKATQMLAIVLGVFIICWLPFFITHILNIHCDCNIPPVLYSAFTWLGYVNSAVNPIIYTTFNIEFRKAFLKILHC
5-HT7, sequence (P34969 whole entry, species assumed): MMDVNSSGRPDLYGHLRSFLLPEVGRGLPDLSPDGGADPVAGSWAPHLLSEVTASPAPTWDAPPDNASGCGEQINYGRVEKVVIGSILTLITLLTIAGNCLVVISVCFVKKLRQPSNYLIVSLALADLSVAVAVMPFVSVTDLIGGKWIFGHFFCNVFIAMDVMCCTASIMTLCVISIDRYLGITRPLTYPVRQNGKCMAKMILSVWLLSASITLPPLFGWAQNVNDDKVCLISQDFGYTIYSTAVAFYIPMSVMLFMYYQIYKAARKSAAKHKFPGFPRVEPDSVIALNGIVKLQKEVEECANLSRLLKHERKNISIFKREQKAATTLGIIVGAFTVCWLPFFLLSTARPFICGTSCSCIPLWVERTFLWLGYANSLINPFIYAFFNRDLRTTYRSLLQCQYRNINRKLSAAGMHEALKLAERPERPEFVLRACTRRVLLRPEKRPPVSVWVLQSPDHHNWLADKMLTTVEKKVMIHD
α-2C(h), sequence (P18825 whole entry): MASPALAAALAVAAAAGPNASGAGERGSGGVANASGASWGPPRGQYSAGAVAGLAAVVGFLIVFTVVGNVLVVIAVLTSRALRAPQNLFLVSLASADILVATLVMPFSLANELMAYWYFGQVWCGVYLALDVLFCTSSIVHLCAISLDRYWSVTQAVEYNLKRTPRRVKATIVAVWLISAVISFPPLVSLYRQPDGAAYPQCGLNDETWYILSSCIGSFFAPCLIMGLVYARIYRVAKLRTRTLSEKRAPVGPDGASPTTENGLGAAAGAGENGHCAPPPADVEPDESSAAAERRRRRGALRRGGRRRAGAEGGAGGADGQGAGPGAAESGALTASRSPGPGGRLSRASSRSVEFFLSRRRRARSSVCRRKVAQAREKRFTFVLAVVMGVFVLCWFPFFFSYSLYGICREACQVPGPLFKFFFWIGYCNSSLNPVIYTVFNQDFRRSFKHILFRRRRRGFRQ
α-2A(h), sequence (P08913 whole entry): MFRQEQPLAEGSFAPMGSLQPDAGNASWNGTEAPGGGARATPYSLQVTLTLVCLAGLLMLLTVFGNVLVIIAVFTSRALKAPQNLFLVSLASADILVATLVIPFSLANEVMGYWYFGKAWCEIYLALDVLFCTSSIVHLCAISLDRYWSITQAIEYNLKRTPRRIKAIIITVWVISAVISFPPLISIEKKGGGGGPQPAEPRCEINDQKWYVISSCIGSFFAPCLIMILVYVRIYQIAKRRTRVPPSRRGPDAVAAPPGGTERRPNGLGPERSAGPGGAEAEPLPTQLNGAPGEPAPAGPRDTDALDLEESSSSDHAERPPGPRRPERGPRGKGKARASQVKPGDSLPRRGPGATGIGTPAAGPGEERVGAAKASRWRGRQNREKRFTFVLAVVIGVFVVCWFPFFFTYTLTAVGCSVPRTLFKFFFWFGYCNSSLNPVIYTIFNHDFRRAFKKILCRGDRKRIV
T1 sequence (P14416 whole entry): as the sequence (P14416 whole entry) above
α-2B(h), sequence (P18089 whole entry): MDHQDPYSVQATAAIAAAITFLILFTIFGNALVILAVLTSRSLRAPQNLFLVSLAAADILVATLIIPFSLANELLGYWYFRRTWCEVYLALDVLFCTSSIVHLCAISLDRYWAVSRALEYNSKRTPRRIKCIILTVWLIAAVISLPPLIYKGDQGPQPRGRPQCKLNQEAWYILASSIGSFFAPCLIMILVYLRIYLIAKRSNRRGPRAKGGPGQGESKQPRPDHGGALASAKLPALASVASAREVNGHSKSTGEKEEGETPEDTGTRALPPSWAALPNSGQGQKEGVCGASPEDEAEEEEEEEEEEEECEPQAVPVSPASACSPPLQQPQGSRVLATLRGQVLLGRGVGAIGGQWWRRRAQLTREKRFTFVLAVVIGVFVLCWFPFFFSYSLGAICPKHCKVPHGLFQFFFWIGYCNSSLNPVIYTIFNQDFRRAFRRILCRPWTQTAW
D4 receptor, sequence (P21917 whole entry): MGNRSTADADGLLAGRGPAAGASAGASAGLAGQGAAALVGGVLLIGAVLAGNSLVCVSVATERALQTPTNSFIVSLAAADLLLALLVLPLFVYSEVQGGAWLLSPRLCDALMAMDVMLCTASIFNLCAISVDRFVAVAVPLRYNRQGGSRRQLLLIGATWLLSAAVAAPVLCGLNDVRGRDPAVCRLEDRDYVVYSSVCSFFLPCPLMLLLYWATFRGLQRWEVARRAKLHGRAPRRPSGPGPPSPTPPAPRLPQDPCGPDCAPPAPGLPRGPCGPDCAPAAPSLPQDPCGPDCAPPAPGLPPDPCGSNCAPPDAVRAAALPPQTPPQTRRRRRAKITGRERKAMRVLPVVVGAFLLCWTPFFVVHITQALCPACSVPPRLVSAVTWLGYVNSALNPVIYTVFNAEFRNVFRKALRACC
D1 receptor, sequence (P21728 whole entry): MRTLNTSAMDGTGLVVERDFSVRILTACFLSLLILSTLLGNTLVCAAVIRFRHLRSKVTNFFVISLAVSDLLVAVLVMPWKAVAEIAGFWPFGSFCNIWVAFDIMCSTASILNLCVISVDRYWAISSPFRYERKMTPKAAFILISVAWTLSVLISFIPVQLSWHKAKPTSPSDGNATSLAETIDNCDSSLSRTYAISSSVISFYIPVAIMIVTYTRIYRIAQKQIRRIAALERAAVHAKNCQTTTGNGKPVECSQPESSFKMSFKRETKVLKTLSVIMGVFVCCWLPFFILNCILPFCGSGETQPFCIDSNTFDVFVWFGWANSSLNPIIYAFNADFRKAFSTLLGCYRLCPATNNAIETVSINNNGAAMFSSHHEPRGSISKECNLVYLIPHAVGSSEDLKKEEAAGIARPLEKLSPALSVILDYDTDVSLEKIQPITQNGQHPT

Papp ([12]; pH 5) [×10⁻⁶ cm/s] | Papp ([12]; pH 7.4) [×10⁻⁶ cm/s] | Structure (SMILES) | Permeability (cm/s) pH 7.4 [1] | pIC50 [15] | pKi [15] | pIC50 [19] | pKi [19] | pIC50 [20] | pKi [20] | pIC50 [22] | pKi [22] | pIC50 [23] | pKi [23] | pIC50 [24] | pKi [24] | difference between novel and familiar object exploration time [25] | known object exploration behavior in rats treated with PCP [25] | normalized amphetamine hyperactivity compared to amisulpride [26] | further results
0.021 | 0.0052 | CCN1CCCC1CNC(=O)c1cc(S(=O)(=O)CC)c(NC)cc1OC (stereo not shown) [Compound 102] | – | 7.02 | 7.39 | 6.57 | 6.70 | 6.05 | 6.31 | 8.57 | 9.18 | 8.08 | 8.47 | 7.96 | 8.60 | increased the difference between novel and familiar object exploration time | able to restore known object exploration behavior in rats treated with PCP to levels similar to untreated rats | statistically superior to that of amisulpride | pIC50 [13]: 8.05; pIC50 [14]: 8.09; pIC50 [16]: 6.32; pKi [16]: 6.66; pIC50 [17]: 6.77; pKi [17]: 6.96; pIC50 [18]: 6.10; pKi [18]: 6.62; pIC50 [21]: 7.13; pKi [21]: 7.57
0.031 | 7.8 | CC(C)NCC(O)COc1cccc2ccccc12 (stereo not shown) [Promanolol, propanolol] | – | – | – | – | – | – | – | – | – | – | – | – | – | – | – | – | –

Further lines, the compound ahead of its results:

Structure (SMILES) | Papp ([12]; pH 5) [×10⁻⁶ cm/s] | Papp ([12]; pH 7.4) [×10⁻⁶ cm/s] | Permeability (cm/s) pH 7.4 [1] | pIC50 [15] | pKi [15] | pIC50 [19] | pKi [19] | pIC50 [20] | pKi [20] | pIC50 [22] | pKi [22] | pIC50 [23] | pKi [23] | pIC50 [24] | pKi [24] | difference between novel and familiar object exploration time [25] | known object exploration behavior in rats treated with PCP [25] | normalized amphetamine hyperactivity compared to amisulpride [26] | further results
CCN1CCCC1CNC(=O)c1cc(S(=O)(=O)CC)c(N)cc1OC (stereo not shown) [Amisulpride, 4-amino-N-(((1-ethyl-2-pyrrolidinyl)methyl)-5-(ethylsulfonyl))-2-methoxybenzamide] | 0.00024 | – | 2.4 × 10^−11 cm/s | – | – | – | – | – | – | – | – | – | – | – | – | – | – | – | affinity for D1 receptor subtype [2]: without any affinity; affinity for D4 receptor subtype [3]: without any affinity; affinity for D5 receptor subtype [4]: without any affinity; activity at the 5-HT2a receptor [5]: not noted to have any activity; affinity for serotonin receptor subtypes [6]: low affinity; affinity for alpha-adrenergic receptor subtypes [7]: low affinity; affinity for histamine receptor subtypes [8]: low affinity; affinity for muscarinic receptors [9]: low affinity; affinity for sigma sites [10]: low affinity; passive diffusion across a PAMPA membrane (Pe) [11]: lowest of 30 psychiatric drugs tested
CCN1CCC[C@H]1CNC(=O)c1cc(S(=O)(=O)CC)c(NC)cc1OC [Compound 103, ((S)-4-methylamino-N-((1-ethyl-2-pyrrolidinyl)methyl)-5-(ethylsulfonyl))-2-methoxybenzamide] | – | – | – | 6.82 | 8.17 | 6.26 | 6.39 | 6.01 | 6.28 | 8.77 | 9.39 | 8.85 | 9.25 | 8.26 | 8.92 | increased the difference between novel and familiar object exploration time | able to restore known object exploration behavior in rats treated with PCP to levels similar to untreated rats | statistically indistinguishable from that of amisulpride | –
CNC(=C[N+](=O)[O-])NCCSCc1ccc(CN(C)C)o1 [Ranitidine, ranitidine] | – | – | 1.5 × 10^−10 cm/s | – | – | – | – | – | – | – | – | – | – | – | – | – | – | – | Permeability (cm/s) pH 5 ([1]; pH 5): 1.1 × 10^−10 cm/s
